Source: PubChem BioAssay AID1053120 (Broad Institute, 2014)
Active and inactive are the calls of the source. The rule behind the calls is not given here.

Columns and labels:
[1] = nonspecific luciferase activators in D54 LucT cells, dose response, counter-screen for N-linked glycosylation inhibitor project, cell-based, dry powder, set 2 (AID 1053120); conditions: D54 LucT luciferase reporter (no NLG), luminescence, 24 h; at 19.5 µM (top of the series)
[2] = system: D54 LucT luciferase reporter (no NLG), luminescence, 24 h; assay: as above

Structure (SMILES)	luciferase activation [1]	AC40 [2]
CN(C)CCCN(Cc1cc2ccccc2[nH]c1=O)C(=O)Nc1ccccc1	20% (inactive)	
COc1cccc(N2CCN(C(=O)c3ccc(CS(=O)c4ccc(C)cc4)o3)CC2)c1 (configuration not stated)	0% (inactive)	
COC(=O)c1cn(C(=O)c2ccc(OC)cc2)c2ccccc12		15400 nM
Cc1ccc(NC(=O)c2cc(S(=O)(=O)N(C)C)ccc2N2CCCC2)cc1	0% (inactive)	
CCOC(=O)c1ccc(Oc2cc(C)nc(SC)n2)cc1		3390 nM
CN(C)CCCN(Cc1cc2ccccc2[nH]c1=O)C(=O)NCc1ccccc1	0% (inactive)	
COc1ccc2sc(NC(=O)c3cc(S(=O)(=O)N(C)C)ccc3N3CCCC3)nc2c1	-50% (inactive)	
CC(=O)c1ccc(Oc2cc(C)nc(-n3nc(C)cc3C)n2)cc1	0% (inactive)	
CC(=O)c1cccc(NC(=O)CSc2ncc(C(=O)Nc3ccccc3)c(=O)n2C)c1	33.3% (inactive)	
CCN(CC)CCC(=O)Nc1cccc2c1C(=O)c1ccccc1C2=O	-33.3% (inactive)	
Cc1ccc(/C=N/NC(=O)C2COc3ccccc3O2)s1 (configuration not stated)		15300 nM
COc1cc(Nc2c3c(nc4ccccc24)CCCC3)cc(OC)c1OC	0% (inactive)	
COc1cc(-c2nnc(SCC3(c4ccc(Br)cc4)OCCO3)o2)cc(OC)c1OC		930 nM
CN(C)S(=O)(=O)c1ccc(N2CCCC2)c(C(=O)Nc2nccs2)c1	20% (inactive)	
Cc1ccc(CCC(=O)Nc2ncc(Cc3cc(Cl)ccc3Cl)s2)o1	-33.3% (inactive)	
COc1ccccc1OCC(=O)NNC(=O)c1ccoc1C	33.3% (inactive)	
O=C1CCNc2cc3ccccc3cc21	-66.7% (inactive)	
Cc1cccc(C)c1OCCNC(=O)C(=O)NCc1ccco1	33.3% (inactive)	
Cc1ccc2cc(CN(CCCN(C)C)C(=O)NCc3ccccc3)c(=O)[nH]c2c1C	50% (inactive)	
CN(C)S(=O)(=O)c1ccc(N2CCCC2)c(C(=O)Nc2ccccc2)c1	20% (inactive)	
CCC1=Nc2cc(C(=O)NCCCOC)ccc2Sc2ccccc21	-33.3% (inactive)	

Structure (SMILES)	luciferase activation [1]	AC40 [2]
COc1ccc(-c2nnc(SCc3ccccc3)o2)cc1		5120 nM
Cc1cnc(NC(=O)c2cc(S(=O)(=O)N3CCCC3)ccc2N2CCCC2)s1	-20% (inactive)	
COc1cc(C(=O)NCCOc2cc(C)cc(C)c2)cc(OC)c1OC	33.3% (inactive)	
CCOc1ccc(NC(=O)c2cc(OC)nc3ccccc23)cc1	0% (inactive)	
Nc1nc(=S)c2ncn([C@@H]3O[C@H](CO)[C@@H](O)[C@H]3O)c2[nH]1		5190 nM
Cc1cnc(NC(=O)c2cc(S(=O)(=O)N(C)C)ccc2N2CCC2)s1	-20% (inactive)	
CN(C)S(=O)(=O)c1ccc(N2CCCC2)c(C(=O)Nc2nc3ccccc3s2)c1	0% (inactive)	
Cc1cc(=O)[nH]c(N/N=C/c2cc(C)n(CC(F)(F)F)c2C)n1	0% (inactive)	
Cc1cnc(NC(=O)c2cc(S(=O)(=O)N(C)C)ccc2N2CCCC2)s1	0% (inactive)	
C/C(=N\NC(=O)c1c([N+](=O)[O-])c(C)nn1C)c1ccc(NC(=O)C2CCCC2)cc1	0% (inactive)	
CC(=O)N[C@H]1[C@@H](O[C@@H]2OC(C[C@@H](O)C3O[C@@H](n4ccc(=O)[nH]c4=O)[C@H](O)[C@@H]3O)[C@H](O)[C@H](O)[C@H]2NC(=O)/C=C/CCCCCCCCCCC(C)C)O[C@H](CO)[C@@H](O)[C@@H]1O (some centres not stated)	-50% (inactive)	
COc1ccc2nc(NC(=O)c3cc(S(=O)(=O)N(C)C)ccc3N3CCCC3)sc2c1	0% (inactive)	
Cc1[nH][nH]c(=O)c1C(c1ccc(-c2ccc(Cl)c(Cl)c2)o1)c1c(C)[nH][nH]c1=O	0% (inactive)	
Cc1cc(C)nc(/N=C(\N)Nc2ccc(OCc3ccccc3)cc2)n1	-33.3% (inactive)	
Cc1cc(NC(=O)CSc2nc(-c3ccco3)cc(C(F)(F)F)n2)no1	0% (inactive)	
Cc1cnc(NC(=O)c2cc(S(=O)(=O)N3CCOCC3)ccc2N2CCCC2)s1	-20% (inactive)	
COc1ccc(NC(=O)C(=O)c2cn(CC(=O)N3CCCC3)c3ccccc23)cc1	-33.3% (inactive)	
O=C(N/N=C/c1ccc(Cl)cc1)c1sccc1OCc1ccc(F)cc1		1600 nM
O=C1CCN(Cc2ccccc2)c2cc3ccccc3cc21	0% (inactive)	
CCCCOc1ccccc1C1CC(=O)NC2=C1C(=O)CCC2 (configuration not stated)	0% (inactive)	
COc1ccccc1CSc1nnc(-c2ccccc2)o1		845 nM

Structure (SMILES)	luciferase activation [1]	AC40 [2]
O=C(Cc1ccccc1)c1nnc(-c2ccccc2)o1	33.3% (inactive)	
COc1ccc2c(COC(=O)c3cccc(S(=O)(=O)NCC(C)C)c3)cc(=O)oc2c1	66.7% (inactive)	
CCOC(=O)COc1cccc2c(=O)n(CC(=O)NCc3ccccc3)ccc12	0% (inactive)	
COc1ccc(CSc2nnc(-c3ccccc3)o2)cc1	50% (inactive)	
Cc1cc(C)cc(C(=O)N2CC(=O)Nc3ccccc32)c1	33.3% (inactive)	
CCOc1ccc(S(=O)(=O)NCc2ccccn2)cc1NC(=O)c1ccccc1F	0% (inactive)	
Cc1csc(NC(=O)c2cc(S(=O)(=O)N(C)C)ccc2N2CCCC2)n1	50% (inactive)	
Cc1cnc(NC(=O)c2cc(S(=O)(=O)N3CCCCC3)ccc2N2CCCC2)s1	50% (inactive)	
CCN(CC)CCOc1ccc2c(c1)C(=NNC(=O)c1ccccn1)c1cc(OCCN(CC)CC)ccc1-2	-33.3% (inactive)	
Brc1ccc(CSc2nnc(-c3ccccc3)o2)cc1	0% (inactive)	
CCn1c2ccccc2c2cc(NC(=O)c3cc(OC)c(OC)c(OC)c3)ccc21	-33.3% (inactive)	
COc1ccccc1-c1nnc(SCc2ccccc2)o1		632 nM
COc1cccc2sc(NC(=O)c3cc(S(=O)(=O)N(C)C)ccc3N3CCCC3)nc12	-50% (inactive)	
CC(=O)N1CCC(=O)c2cc3ccccc3cc21	33.3% (inactive)	
Cc1ccc(C(=O)c2cc([N+](=O)[O-])ccc2N2CCOCC2)cc1C	66.7% (inactive)	
Cc1ccc2cc(CN(CCCN(C)C)C(=O)Nc3ccccc3)c(=O)[nH]c2c1C	0% (inactive)	
CCCOC(=O)c1[nH]c2c(c1C)C(=O)CC(c1cccs1)C2 (configuration not stated)	50% (inactive)	
CCN(CC)CCCNc1nc2cc(OC)c(OC)cc2c2nc(-c3ccccc3)nn12	-33.3% (inactive)	
CCCNS(=O)(=O)c1cccc(C(=O)OCc2cc(=O)oc3cc(OC)ccc23)c1		2140 nM
Cc1ccc(Oc2ccc(S(=O)(=O)N3CCOCC3)cc2C(N)=O)c(-n2nc3ccccc3n2)c1	33.3% (inactive)	
